In US6069132A, “Phosphazole compounds” (priority 1997, dated 2000):
Values after ≈ are worked out from the molar mass of the structure shown. “Also recorded” adds a separate entry of the source. Where two headings read alike, the source gives them in different places.

What was measured:
TNFα = assay: Inhibition of TNFα production in LPS-stimulated THP-1 cells (ELISA); assay type: cell-based, human; settings: for inhibition at 10 µg/mL / inhibition at 100 µg/mL / IC50: Homo sapiens; for inhibition at 10 µg/mL: 10 μg/mL; for inhibition at 10 µg/mL / inhibition at 100 µg/mL: THP-1, 6 h post-stimulation (FIG. 2), read-out: percent inhibition of TNFα production; for inhibition at 100 µg/mL: 100 μg/mL; for IC50: Table 2, LPS-stimulated THP-1, 6 h post-stimulation
Procedure: Cell line. THP-1 cells (human monocyte) were maintained in RPMI 1640 medium containing 25 mM Hepes buffer, 2 mM L-glutamine, 50 units of penicillin per mL, 50 μg of streptomycin sulfate per mL, and 10% heat-inactivated fetal bovine serum (FBS) in a humidified incubator containing 5% CO2. The cells were split 1:4 weekly as recommended by the American Type Culture Collection (ATCC).
TNFα assay. Varying concentrations of the test compound or control compound were added to THP-1 cells plated at a density of 1×10^6cells/mL in 600 μL of 10% RPMI in a 48 well plate. After one hour the cells were stimulated with 0.5 μg of lipopolysaccharide (LPS; Sigma, lot number 43H40491) per mL. Six hours post-stimulation supernatants were collected and assayed for TNFα or IL-1β production using a commercially available cytokine detection ELISA (Enzyme Linked Immunosorbent Assay) kit according to the suppliers instructions. A suitable assay kit may be obtained from Biosource, or R and D systems. A novel xanthine analog, HWA-3138, having the structure (as shown below) was used as the control compound (30) in this study to monitor the response of the THP-l cells. Xanthine analogs are known inhibitors of TNFα but not IL-1β. In the following experiments compound HWA-3138 was used as a positive control. [drawing 58]
Time of Addition. Varying concentrations of test or control compounds were added to THP-1 cells (1×10^6 cells/mL) at different time points post-stimulation using 0.5 μg of LPS (Sigma, lot number 43H40491) per mL in 300 μL of 10% RPMI in a 48 well plate. Six hours post-stimulationsupernatants were collected and assayed for TNFα or IL-1β production using a Biosource cytokine detection ELISA (Enzyme Linked Immunosorbent Assay) kit according to the supplier's instructions.
The membrane bound TNFα was separated from the free TNFα in the culture medium at 6 hours post-LPS stimulation as follows: The corresponding cells were centrifuged at 3500 rpm (~1,000×g) for 6 min. The supernatants were removed and the cell pellets were then resuspended in 200 μL of 0.25 mM Tris-HCl (pH 7.4). The cell associated TNFα was prepared by freezing the cell suspension in dry ice/ethanol and thawing at 37° C. three times with Vortexing in-between freeze-thaw cycles. Each cycle was 4-5 min apart.
To determine the long-term effects of phosphazole compound T70241 on TNFα production after a single treatment, THP-1 cells were pre-incubated with T70241, washed and resuspended in drug free medium. The xanthine analog HWA-3138 was used as a control.

[1] = Cytotoxicity on growing THP-1 cells (MTS assay); assay type: cell-based, human; settings: human, thp-1 cells; Table 2; drug dose required to inhibit logphase growing cells by 50%; read-out: TC50 Growing THP-1
Procedure: Cytotoxicity Analysis. The cytotoxicity of the compounds were assayed using the CellTiter 96™ Aqueous Non-Radioactive Cell Proliferation (MTS) Assay kit obtained from Promega (Madison, Wis.) following the instructions provided by the supplier. The viable cell number was determined by trypan blue staining and cells (THP-1) were resuspended in PRMI supplemented with 10% FBS (GIBCO). Eighty microliters of cell suspension (1.7×10^4cells/well) was dispensed onto a 96-well microtiter plates. At this time 20 μL of drug (or control) was added to appropriate wells. Each concentration was assayed in quadruplicate. The plates were incubated at 37° C. in a humidified 5% CO2 atmosphere for 4 days and MTS assay […] for each concentration and the data obtained was used to calculate TC50 (the concentration of the compound necessary to inhibit the cell growth by 50%) for each compound.

HCMV (Town strain) = assay: HCMV plaque reduction (CPE) assay in MRC-5 cells; assay type: cell-based, human cytomegalovirus
Procedure: The adenine analog phosphazole (compound T70241) was assayed for antiviral activity using a HCMV plaque reduction assay, in accordance with known methods such as that described in U.S. Pat. No. 5,446,045.
(§1) Cell Culture. Vero (African Green Monkey kidney cells) and MRC-5 (diploid Human Embryonic Lung fibroblasts) cells were obtained from the American Type Culture Collection (ATCC) and were grown in minimal essential medium (MEM) with Earl's salts and glutamine (GIBCO BRL, Life Technologies, Inc.) with 10% heat inactivated fetal bovine serum (GIBCO BRL) and penicillin (100 μg/mL)/streptomycin (100 μg/mL).
CMV Cytopathic Effect (CPE) Assay. Assays were performed essentially as described by Lewis et al. (111), which report is incorporated herein by reference. MRC-5 cells (100,000 cells/well) were seeded in 24-well plates overnight. Medium was then removed and wells were rinsed once with 250 μL of 2% FCS-MEM before adding 40-50 pfu of HCMV (Town strain) to each well. After 2 hours of virus adsorption, the medium was removed and the cells were rinsed once with 2% FCS-MEM. Varying concentrations of the phosphazole compound in the culture medium (1 mL) was then added to appropriate wells and plates were incubated for 5-6 days at 37° C. in a humidified 5% CO2 atmosphere. Each concentration was tested in duplicate wells.
The extent of the plaque reduction was quantitated by removing the media and adding 200 μL of 0.1% crystal violet in 20% methanol to all wells. The crystal violet was then removed after 10 min staining at room temperature by rinsing in the sink with tap water and the plates dried overnight. The plaques were then counted using a Nikon inverted microscope.

[2] = Cytotoxicity on static Vero cells; assay type: cell-based; settings: african green monkey, Table 4, 50% cell death (static cells), read-out: TC50 Static Vero
Procedure: as §1
(§2) Cytotoxicity Analysis. The cytotoxicity of the compound was assayed using few the CellTiter 96™ Aqueous Non-Radioactive Cell Proliferation (MTS) Assay (Promega). Briefly, viable cell number was determined by trypan blue staining and cells (MRC-5 and Vero) were resuspended in minimal essential medium (MEM) supplemented with 10% FBS (GIBCO). Eighty microliters of cell suspension (1.7×10^4 cells/well) was dispensed onto a 96-well microtiter plates. At this time 20 μL of drug (or control) was added to appropriate wells. Each concentration was assayed in quadruplicate. The plates were incubated at 37° C. in a humidified 5% CO2 atmosphere for 4 days and MTS assay was performed according to the manufacturer's instructions. The average absorbence of the sample was graphed for each concentration and the data obtained was used to calculate TC50 (the concentration necessary to give one-half maximum growth) for each compound.

[3] = Cytotoxicity on growing Vero cells (MTS); assay type: cell-based; settings: african green monkey, Table 4, 50% inhibition of logphase growing cells, read-out: TC50 Growing Vero
Procedure: as §1, §2

HSV-1 = HSV-1 CPE assay in Vero cells; assay type: cell-based; settings: Human alphaherpesvirus 1, Vero; Table 4
[4] = Cytotoxicity on growing MRC-5 cells (MTS); assay type: cell-based, human; settings: human, mrc-5 cells
Procedure: as §1, §2

[5] = lowest concentration tested, 6 h post-LPS (FIG. 4)

Q: With `Nc1ncnc2pc[nH]c12` (stereo not drawn) [T70241, 7-amino-1H-1,3-azaphospholo[4,5-d]pyrimidine] as the compound, how does the “levels of cell associated and free TNFα” value (TNFα; 6 hours post-LPS (FIG. 4)) read?
A: able to reduce the levels of both cell associated and free TNFα

Q: What about the inhibition at 10 µg/mL (TNFα) of the same compound?
A: ~25%

Q: And the inhibition at 100 µg/mL (TNFα)?
A: ~90%

Q: And the IC50 (TNFα)?
A: 23.9 µg/mL (≈ 157 µM)

Q: What about the “TNFα level on late addition” value (TNFα; compound added 5 hours post-LPS, read at 6 h (FIG. 3)) of the same compound?
A: significantly reduce the level of TNFα in the culture medium; also recorded: sharply inhibit the amount of cytokine in the culture

Q: What about the “inhibition of TNFα production compared to control HWA-3138” value (TNFα; concentrations as little as 10 μg/mL (FIG. 2)) of the same compound?
A: inhibits TNFα production in these cells better than the control xanthine compound

Q: What about the “reduction of extracellular TNFα” value (TNFα; [5]) of the same compound?
A: about 50%

Q: What about the “reduction of membrane-bound (intracellular) TNFα” value (TNFα; [5]) of the same compound?
A: ~30%

Q: And the “long-term inhibition of TNFα production after a single treatment” value (TNFα; pre-incubated, washed, drug free medium (FIG. 5))?
A: in a dose dependent fashion for 72 hours after the drug removal

Q: And the CC50 at 96 h [1]?
A: > 1000 µg/mL

Q: What about the “inhibition of HCMV virus production” value (HCMV (Town strain); 0.01-10 μg/mL) of the same compound?
A: nearly logrithmic increase in inhibition of virus production

Q: What about the IC50 (HCMV (Town strain); Human betaherpesvirus 5, MRC5, read-out: 50% inhibitory concentration (IC50), HCMV induced plaques) of the same compound?
A: ~8.25 µg/mL (≈ 54.2 µM)

Q: And the IC50 (HCMV (Town strain); Human betaherpesvirus 5, MRC5, Table 4, read-out: IC50 HCMV)?
A: 8.08 µg/mL (≈ 53.1 µM)

Q: What about the CC50 at 96 h [2] of the same compound?
A: > 50 µg/mL

Q: And the CC50 at 96 h [3]?
A: > 50 µg/mL

Q: What about the IC50 (HSV-1) of the same compound?
A: > 50 µg/mL

Q: And the CC50 at 96 h ([4]; FIG. 9A, four day period, read-out: TC50, growing MRC-5 cells)?
A: > 50 µg/mL

Q: For `CCCCCn1cpc2ncnc(N)c21` (stereo not drawn) [T70254, 7-Amino-1-(n-pentyl)-1,3-azaphospholo[4,5-d]pyrimidine], which “inhibition of TNFα production by T70254” value (TNFα; 6 hours, LPS (FIG. 2)) is on record?
A: significantly inhibits TNFα production in THP-1 cells

Q: What about the inhibition at 10 µg/mL (TNFα) of the same compound?
A: ~30%

Q: And the inhibition at 100 µg/mL (TNFα)?
A: ~55%

Q: What about the IC50 (TNFα) of the same compound?
A: 19.4 µg/mL (≈ 87.3 µM)

Q: What about the CC50 at 96 h [1] of the same compound?
A: 14.7 µg/mL (≈ 66.2 µM)

Q: What about the IC50 (HCMV (Town strain); Human betaherpesvirus 5, MRC5, read-out: IC50 HCMV) of the same compound?
A: > 50 µg/mL

Q: What about the CC50 at 96 h [2] of the same compound?
A: 18.2 µg/mL (≈ 81.8 µM)

Q: And the CC50 at 96 h [3]?
A: 8.18 µg/mL (≈ 36.8 µM)

Q: What about the IC50 (HSV-1) of the same compound?
A: > 50 µg/mL

Q: And the CC50 at 96 h ([4]; Table 4, 50% inhibition of logphase growing cells, read-out: TC50 Growing MRC-5)?
A: 17.9 µg/mL (≈ 80.8 µM)
